# Measurements reported in US20120202693A1 (DOW AGROSCIENCES LLC, priority 2011, published 2012).
# Where “and” joins values, the source holds several entries; their conditions need not be identical. Equal values may be shown once.
# Experiments:
# Assay type in all cases: in vivo
# [1] = test system: scented mayweed (Matricaria chamomilla, MATCH); experiment: Postemergence herbicidal activity of mixtures under field conditions (vines), visual weed control; conditions: 27 days after application
# Procedure: (§1) Evaluation of Postemergence Herbicidal Activity of Mixtures under Field Conditions Methodology
# (§2) Trial site was located in commercially grown vines of European grape (Vitis vinifera). The trial was conducted using normal research methodology. Trial plots were between 2 m wide by […] long. All treatments were applied using a randomized complete block trial design with 3 replications per treatment. The trial sites had naturally occurring populations of weeds. The weed spectrum included, but was not limited to, ryegrass (Lolium spp, LOLSS), scented mayweed (Matricaria chamomilla, MATCH), and annual bluegrass (Poa annua, POAAN).
# (§3) Treatments consisted of tank mixes of an oil dispersion of penoxsulam and commercially available formulation of glyphosate applied in water. The application volume was 250 liters per hectare (L/ha). Application was made using a precision gas hand sprayer at 250 kPA pressure using a 2 m boom with flat fan (80015VS) nozzles to broadcast the treatments to the weeds and to the soil.
# (§4) […] Ratings were based on Percent (%) Visual weed control, where 0 corresponds to no control and 100 corresponds to complete control.
# (§5) Colby's equation was used to determine the herbicidal effects expected from the mixtures (Colby, S. R. Calculation of the synergistic and antagonistic response of herbicide combinations. Weeds 1967 15, 20-22).
# (§6) The following equation was used to calculate the expected activity of mixtures containing two active ingredients, A and B:
# (§7) A=observed efficacy of active ingredient A at the same concentration as used in the mixture;
# (§8) B=observed efficacy of active ingredient B at the same concentration as used in the mixture.
# [2] = test system: annual bluegrass (Poa annua, POAAN); experiment: as above; conditions: 27 days after application
# Procedure: as §1, §2, §3, §4, §5, §6, §7, §8
# [3] = test system: ryegrass (Lolium spp, LOLSS); experiment: as above; conditions: 61 days after application
# Procedure: as §1, §2, §3, §4, §5, §6, §7, §8
# [4] = test system: Chinese sprangletop (Leptochloa chinensis, LEFCH); experiment: Postemergence herbicidal activity of mixtures in the greenhouse, visual weed control; conditions: 16 days after application
# Procedure: (§9) Evaluation of Postemergence Herbicidal Activity of Mixtures in the Greenhouse
# (§10) Seeds of the desired test plant species were planted in 80% mineral soil/20% grit planting mixture, which typically has a pH of 7.2 and an organic matter content of about 2.9 percent, in plastic pots with a surface area of 128 square centimeters (cm^2). The growing medium was steam sterilized. The plants were grown for 7-19 days in a greenhouse with an approximate 14-hour (h) photoperiod which was maintained at about 29° C. during the day and 26° C. during the night. Nutrients and water were added on a regular basis and supplemental lighting was provided with overhead metal halide 1000-Watt lamps as necessary. The plants were treated with postemergence foliar applications when they reached the second to fourth true leaf stage. All treatments were applied using a randomized complete block trial design, with 4 replications per treatment.
# (§11) Compound requirements are based upon a 12 mL application volume at a rate of 187 liters per hectare (L/ha). Spray solutions of the mixtures were prepared by adding the stock solutions to the appropriate amount of dilution solution to form 12 mL spray solution with active ingredients in single and two way combinations. Formulated compounds were applied to the plant material with an overhead Mandel track sprayer equipped with 8002E nozzles calibrated to deliver 187 L/ha at a spray height of 18 inches ([…] (cm)) above average plant canopy. The weed spectrum included broadleaf signalgrass (Brachiaria platyphylla, BRAPP), yellow nutsedge (Cyperus esculentus, CYPES), barnyardgrass (Echinochloa crus-galli, ECHCG), momingglory (Ipomoea, hederacea, IPOHE), and Chinese sprangletop (Leptochloa chinensis, LEFCH).
# (§12) The treated plants and control plants were placed in a greenhouse as described above and watered by sub-irrigation to prevent wash-off of the test compounds. Treatments were rated at 16 days after application (DAA) as compared to the untreated control plants. Visual weed control was scored on a scale of 0 to 100 percent where 0 corresponds to no injury and 100 corresponds to complete kill.
# as §5, §6, §7, §8
# [5] = test system: broadleaf signalgrass (Brachiaria platyphylla, BRAPP); experiment: as above; conditions: 16 days after application
# Procedure: as §9, §10, §11, §12, §5, §6, §7, §8
# [6] = test system: morningglory (Ipomoea hederacea, IPOHE); experiment: as above; conditions: 16 days after application
# Procedure: as §9, §10, §11, §12, §5, §6, §7, §8
# [7] = test system: barnyardgrass (Echinochloa crus-galli, ECHCG); experiment: as above; conditions: 16 days after application
# Procedure: as §9, §10, §11, §12, §5, §6, §7, §8
# [8] = test system: yellow nutsedge (Cyperus esculentus, CYPES); experiment: as above; conditions: 16 days after application
# Procedure: as §9, §10, §11, §12, §5, §6, §7, §8
# [9] = Glyphosate 720 grams ai/ha alone
# [10] = Glyphosate (IPA salt) 210 grams ai/ha alone
# [11] = Penoxsulam 20 grams ai/ha alone
# [12] = Penoxsulam 1.3 grams ai/ha alone
# [13] = Penoxsulam 2.5 grams ai/ha alone
# [14] = Penoxsulam 10 grams ai/ha alone
compound,measurement,setting,value
"O=C(O)CNCP(=O)(O)O [Glyphosate, N-(phosphonomethyl)glycine]",MATCH Obs (Observed control),[1]; [9],50%
same,POAAN Obs (Observed control),[2]; [9],93%
same,LOLSS Obs (Observed control),[3]; [9],60%
same,LEFCH Obs (Observed control),[4]; Glyphosate (IPA salt) 53 grams ai/ha alone,1%
same,LEFCH Obs (Observed control),[4]; [10],41%
same,BRAPP Obs (Observed control),[5]; Glyphosate (IPA salt) 110 grams ai/ha alone,15%
same,IPOHE Obs (Observed control),[6]; [10],31%
"COc1cnc(OC)n2nc(NS(=O)(=O)c3c(OCC(F)F)cccc3C(F)(F)F)nc12 [Penoxsulam, 2-(2,2-difluoroethoxy)-N-(5,8-dimethoxy-[1,2,4]triazolo[1,5-c]pyrimidin-2-yl)-6-(trifluoromethyl)benzenesulfonamide]",MATCH Obs (Observed control),[1]; [11],0%
same,POAAN Obs (Observed control),[2]; [11],0%
same,LOLSS Obs (Observed control),[3]; [11],0%
same,LEFCH Obs (Observed control),[4]; [12],5%
same,LEFCH Obs (Observed control),[4]; [13],1%
same,LEFCH Obs (Observed control),[4]; Penoxsulam 5 grams ai/ha alone,2%
same,LEFCH Obs (Observed control),[4]; [14],6.3% and 6%
same,ECHCG Obs (Observed control),[7]; [12],63%
same,ECHCG Obs (Observed control),[7]; [13],62%
same,BRAPP Obs (Observed control),[5]; [12],9%
same,BRAPP Obs (Observed control),[5]; [13],10%
same,BRAPP Obs (Observed control),[5]; Penoxsulam 5 grams ai/ha alone,4%
same,IPOHE Obs (Observed control),[6]; [12],16%
same,IPOHE Obs (Observed control),[6]; [13],31%
same,IPOHE Obs (Observed control),[6]; Penoxsulam 5 grams ai/ha alone,31%
same,IPOHE Obs (Observed control),[6]; [14],31%
same,CYPES Obs (Observed control),[8]; [12],5.8% and 6%
same,CYPES Obs (Observed control),[8]; [13],31.8% and 32%
same,CYPES Obs (Observed control),[8]; Penoxsulam 5 grams ai/ha alone,44%
same,CYPES Obs (Observed control),[8]; [14],65%
